Results on 33 compounds are retold here after PubChem BioAssay (NCI).

Where “and” joins values, the source holds several entries; their conditions need not be identical. Equal values may be shown once.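 Grown in 96-well plates, cells were treated for 48 hours with each compound at five concentrations. Insufficient inhibition: endpoint recorded as highest concentration tested. GI50 = concentration required for 50% inhibition of growth. At the TGI there is no net growth.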

Some test systems named below: MDA-N; DMS 273 small cell lung; M19-MEL melanoma; SNB-78 CNS; RXF-631 renal; DLD-1 colon; KM20L2 colon; XF 498 CNS; LXFL 529 NSCLC; P388/ADR leukemia; SN12K1 renal.
Holding throughout (assay): NCI tumour cell line growth inhibition, 48 h

As to `Nc1ccn(C2OC(COP(=O)(O)O)C(O)C2O)c(=O)n1` (stereo not given), the TGI in the experiment with MDA-N is > 100 µM.
Same read-out and setting: the result for `CC1(C)CC2=NOS3=C2C(=NO3)C1c1ccccn1` (stereo not given) reads 92.9 µM; that for `C[C@]12CC[C@@H]3c4ccc(OCC(=O)O)cc4CC[C@H]3[C@@H]1CCC2=O`, > 100 µM.
For the compound `Cn1cc(C(=O)/C(Cl)=C(\Cl)C(=O)O)c2ccccc21`, the TGI in the experiment with DMS 273 small cell lung, in the experiment with M19-MEL melanoma, in the experiment on SNB-78 CNS, with RXF-631 renal, in the experiment on DLD-1 colon and in the experiment with KM20L2 colon was > 100 µM in each case. Moreover, the TGI in the experiment on XF 498 CNS was > 100 µM.
`C/C=C/CP(=O)(c1ccccc1)c1ccccc1`: the TGI in the experiment on DMS 273 small cell lung, in the experiment with M19-MEL melanoma, with LXFL 529 NSCLC, with SNB-78 CNS, in the experiment on DLD-1 colon and in the experiment with KM20L2 colon was > 100 µM in each case. Also, the TGI with XF 498 CNS is > 100 µM.
With `O=C(CC1(O)C(=O)Nc2ccccc21)c1ccc(O)cc1O` (stereo not given), the TGI with DMS 273 small cell lung, in the experiment with M19-MEL melanoma, in the experiment with LXFL 529 NSCLC, in the experiment on SNB-78 CNS, in the experiment with DLD-1 colon and in the experiment on KM20L2 colon was > 100 µM throughout. Further, in the experiment on XF 498 CNS, the TGI was > 100 µM.
Take `Nc1nc(F)nc2c1ncn2C1OC(COP(=O)(O)O)C(O)C1O` (stereo not given): the TGI in the experiment with DMS 273 small cell lung was 821 µM; in the experiment on M19-MEL melanoma it was 877 µM; in the experiment with SNB-78 CNS it was 636 µM; in the experiment with P388/ADR leukemia it was 160 µM; in the experiment with DLD-1 colon it was > 1080 µM; in the experiment with SN12K1 renal it was 277 µM. The results for the TGI with KM20L2 colon, in the experiment on MDA-N and with XF 498 CNS were > 1250 µM, 723 µM and 152 µM, respectively.
On to `NC1=NN(c2ccccc2)C(=O)C1C(=O)C(=O)Nc1cccc(C(F)(F)F)c1` (stereo not given), for which the TGI in the experiment on DMS 273 small cell lung, in the experiment with M19-MEL melanoma, in the experiment on LXFL 529 NSCLC, with SNB-78 CNS, in the experiment on RXF-631 renal and in the experiment on DLD-1 colon was > 100 µM throughout. Moreover, the TGI in the experiment on KM20L2 colon and in the experiment on XF 498 CNS was > 100 µM throughout.
Regarding `OCC1OC(O)C(N=Cc2ccc3c(c2)OCO3)C(O)C1O` (stereo not given), the TGI in the experiment with MDA-N is > 100 µM.
Regarding `O=C(Nc1ccc(N=Nc2ccccc2)cc1)Sc1ccccc1C(=O)O`, the TGI with DMS 273 small cell lung, in the experiment with LXFL 529 NSCLC, in the experiment with SNB-78 CNS and in the experiment on KM20L2 colon was > 100 µM throughout.
In the case of `CC1=Cc2cc3[n-]c(cc4nc(cc5[n-]c(cc1n2)c(C)c5CCC(=O)O)C(CCC(=O)O)=C4C)cc3C.[Cu+2]`, the GI50 in the experiment with DMS 273 small cell lung was > 39.8 µM; with M19-MEL melanoma, > 100 µM; in the experiment with LXFL 529 NSCLC, > 1 µM and 12.4 µM; in the experiment on SNB-78 CNS it was > 1 µM and 2.07 µM; in the experiment on DLD-1 colon, > 42.6 µM; with KM20L2 colon it was > 100 µM. The GI50 in the experiment with MDA-N was 62.4 µM; in the experiment on XF 498 CNS, > 1 µM and 10.2 µM. In addition, the TGI in the experiment on DMS 273 small cell lung is > 55.9 µM; in the experiment on M19-MEL melanoma it was > 100 µM; with LXFL 529 NSCLC, > 100 µM; in the experiment with SNB-78 CNS, > 1 µM and 8.92 µM; with DLD-1 colon, > 93 µM; in the experiment on KM20L2 colon, > 100 µM. Also, the TGI was > 100 µM in the experiment on MDA-N; > 1 µM and 26.5 µM with XF 498 CNS.
Consider `O[C@H]1[C@H]2[C@H](O)CCCN2C[C@H]1O`, for which the TGI in the experiment on DMS 273 small cell lung, in the experiment with M19-MEL melanoma, with LXFL 529 NSCLC, with SNB-78 CNS, in the experiment with DLD-1 colon and with KM20L2 colon was > 100 µM each time. In addition, in the experiment with XF 498 CNS, the TGI is > 100 µM.
As for `COc1ccc(/C(Cl)=C(\C=O)c2cc(OC)c(OC)c(OC)c2)cc1OC`, the TGI in the experiment on DMS 273 small cell lung is > 100 µM; in the experiment on M19-MEL melanoma, > 100 µM; in the experiment with LXFL 529 NSCLC, > 100 µM; in the experiment on SNB-78 CNS, 88.1 µM; in the experiment with RXF-631 renal it was 65.4 µM; with KM20L2 colon it was > 100 µM. Moreover, the TGI in the experiment with MDA-N was > 100 µM.
As to `O=C1NC(=O)[C@H]2C3C=CC([C@@H]12)[C@@H]1C(=O)NC(=O)[C@H]31`, in the experiment with MDA-N, the TGI is > 100 µM.
For `COC1=CC(C)C2C[C@H]3O[C@H](O)C[C@H]4C(C)C(=O)C(O)C([C@@]2(C)C1=O)[C@@]34C` (stereo not given in full), the TGI in the experiment on DMS 273 small cell lung, in the experiment with M19-MEL melanoma, in the experiment on LXFL 529 NSCLC, in the experiment with SNB-78 CNS and with DLD-1 colon was > 100 µM each time.
On to `N#Cc1c(C(N)=O)ncn1Cc1ccccc1`, for which the TGI with DMS 273 small cell lung, in the experiment on M19-MEL melanoma, with LXFL 529 NSCLC, with SNB-78 CNS, with RXF-631 renal and in the experiment on DLD-1 colon was > 100 µM in each case. The TGI with KM20L2 colon and with XF 498 CNS was > 100 µM in each case.
As to `O=C1CC(c2ccccc2)NCN1` (stereo not given), the TGI in the experiment on DMS 273 small cell lung, in the experiment with M19-MEL melanoma, with LXFL 529 NSCLC, in the experiment on SNB-78 CNS, in the experiment with DLD-1 colon and in the experiment on KM20L2 colon was > 100 µM throughout.
Take `CCC(=O)Nc1ccc2c(c1)CN1C(=O)c3ccccc3C1=N2`: in the experiment on MDA-N, the GI50 was > 100 µM and the TGI is > 100 µM.
Turning to `COc1ccc(C(=O)O)c2c(=O)c3ccccc3[nH]c12`, the TGI in the experiment with DMS 273 small cell lung, in the experiment on M19-MEL melanoma, in the experiment with LXFL 529 NSCLC, with SNB-78 CNS, in the experiment on KM20L2 colon and in the experiment on XF 498 CNS was > 100 µM each time.
For `Cc1ccc(NC(=O)/C(=N/NC(=O)CC#N)C2C(=O)N(c3ccccc3)N=C2N)cc1C` (stereo not given), the TGI in the experiment with DMS 273 small cell lung, in the experiment on M19-MEL melanoma, with LXFL 529 NSCLC, in the experiment on SNB-78 CNS, with DLD-1 colon and in the experiment with KM20L2 colon was > 100 µM in each case. Also, the TGI with XF 498 CNS was > 100 µM.
Turning to `COc1ccc(C2c3cc4c(cc3OC(O)(CO)C2C(=O)O)OCO4)c(OC)c1OC` (stereo not given) (tested in a mixture with another compound), the TGI in the experiment with DMS 273 small cell lung, in the experiment on M19-MEL melanoma, in the experiment with SNB-78 CNS, with DLD-1 colon, in the experiment on KM20L2 colon and in the experiment with XF 498 CNS was > 100 µM throughout.
`O=C(CCc1ccc(O)c(O)c1)c1ccc(O)c(O)c1O` had a TGI in the experiment on MDA-N of 32.2 µM.
Same read-out and setting: for `O=C1C=CC(=O)N1c1ccc2c(c1)Cc1cc(NC(=O)C(F)(F)F)ccc1-2` the value was 32.5 µM.
As for `c1cncc(-c2cc(-c3cc(-c4cccnc4)n[nH]3)[nH]n2)c1`, the TGI with MDA-N is > 100 µM.
For `CC1(C)OC(=O)C=C(O)O1.CC1(C)OC(=O)C=C(O)O1.CCO.Oc1ccc2c(c1)CCC2.[Ti]`, the GI50 with DMS 273 small cell lung, with M19-MEL melanoma, in the experiment with LXFL 529 NSCLC, with SNB-78 CNS, with DLD-1 colon and in the experiment with KM20L2 colon was > 100 µM throughout. Also, the TGI in the experiment with DMS 273 small cell lung, with M19-MEL melanoma, in the experiment with LXFL 529 NSCLC, in the experiment with SNB-78 CNS, in the experiment with DLD-1 colon and in the experiment on KM20L2 colon was > 100 µM throughout.
Consider `NC(=S)N/N=C1\C(=O)N(c2cccc([N+](=O)[O-])c2)C(=O)C1C(=O)Nc1cccc([N+](=O)[O-])c1` (stereo not given), for which the TGI in the experiment on DMS 273 small cell lung, with M19-MEL melanoma, with LXFL 529 NSCLC, with SNB-78 CNS, with DLD-1 colon and with KM20L2 colon was > 100 µM each time.
Consider `CCOC(=O)c1ccc(C(O)CC(=O)OC(C)(C)C)[nH]1` (stereo not given), for which, in the experiment with MDA-N, the GI50 is 17.8 µM and the TGI came to 60.3 µM.
With `O=C1C(Br)=C(c2ccccc2)C(c2ccccc2)=C1c1ccccc1`, the TGI with DMS 273 small cell lung is 3.68 µM; in the experiment with M19-MEL melanoma it was 5.58 µM; in the experiment on LXFL 529 NSCLC, 2.84 µM; in the experiment on SNB-78 CNS it was 4.26 µM; with RXF-631 renal, 13.1 µM; with DLD-1 colon it was 3.66 µM. The TGI in the experiment on KM20L2 colon amounted to 13.1 µM; in the experiment with MDA-N, 9.61 µM; in the experiment with XF 498 CNS it was 3.65 µM.
With `CCC[CH2][Sn]([CH2]CCC)([O]C(=O)c1cccc(F)c1F)[O][Sn]([CH2]CCC)([CH2]CCC)[O]C(=O)c1cccc(F)c1F`, the GI50 was 0.301 µM in the experiment with DMS 273 small cell lung; 0.141 µM in the experiment with M19-MEL melanoma; 0.0222 µM with LXFL 529 NSCLC; 0.139 µM in the experiment on SNB-78 CNS; 0.0409 µM with RXF-631 renal; 0.182 µM in the experiment on DLD-1 colon. The GI50 in the experiment on KM20L2 colon was 0.727 µM; in the experiment with MDA-N it was 0.223 µM; with XF 498 CNS, 0.173 µM. Moreover, the TGI came out at 1.51 µM in the experiment on DMS 273 small cell lung; 0.689 µM in the experiment on M19-MEL melanoma; 0.157 µM with LXFL 529 NSCLC; 1.51 µM in the experiment on SNB-78 CNS; 0.398 µM in the experiment on RXF-631 renal; 0.744 µM with DLD-1 colon. The TGI in the experiment on KM20L2 colon came to 2.1 µM; with MDA-N, 1.16 µM; in the experiment with XF 498 CNS it was 0.314 µM.
As for `CC1CC(C)C(=O)C(C(=O)CC2CC(=O)NC2=O)C1` (stereo not given), the TGI with DMS 273 small cell lung, with M19-MEL melanoma, in the experiment with LXFL 529 NSCLC, in the experiment on SNB-78 CNS, in the experiment on RXF-631 renal and with DLD-1 colon was > 100 µM each time. Moreover, the TGI in the experiment on KM20L2 colon and with XF 498 CNS was > 100 µM each time.
Regarding `CCOC(=O)CCc1c(C)c2ccc(O)cc2oc1=O`, the TGI in the experiment with MDA-N is > 100 µM.
As for `CC(=O)Oc1cc2c(=O)oc3c(OC(C)=O)c(OC(C)=O)c(OC(C)=O)c4c(=O)oc(c1OC(C)=O)c2c34`, the TGI was > 100 µM with DMS 273 small cell lung; 40.6 µM in the experiment with M19-MEL melanoma; > 100 µM in the experiment with LXFL 529 NSCLC; > 100 µM in the experiment with SNB-78 CNS; 78.5 µM with RXF-631 renal; > 100 µM in the experiment on DLD-1 colon. The TGI in the experiment with KM20L2 colon was > 100 µM; in the experiment with XF 498 CNS it was 76.5 µM.
With `Cc1cc(-c2cc(C)c(O)c(C(C)(C)C)c2)cc(C(C)(C)C)c1O`, the TGI with MDA-N was 21.2 µM and 27.9 µM.
